From patent publication US8790898B2 (priority 2008, dated 2014)
Values joined by “and” are separate entries in the source; they are usually repeats but may differ in a detail not shown here. Equal entries are not always repeated. “Also recorded” adds a separate entry of the source. Where two headings read alike, the source gives them in different places.

Key:
[1] = system: HIV-1 BZ 167; format: cell-based
[2] = system: CBD1 peptide and CBD1- and CBM-based peptides; parameters: species or system BALB/c mice; conditions: mouse, in vivo; for ELISA titer against C17K / IgG2/IgG1 ratio / ELISA C17K / ELISA K23M / ELISA K24W / ELISA K27M / ELISA K27W / ELISA K27W(G) / ELISA K30W(G) / ELISA against the Immunogen (OD) / ELISA p6362: sc; as to ELISA C17K: test concentration or dose not given here; as to ELISA K24W: test concentration or dose not given here; as to ELISA K27W(G): test concentration or dose not given here; as to ELISA K27W: test concentration or dose not given here; as to ELISA K30W(G): test concentration or dose not given here; as to ELISA against the Immunogen (OD): test concentration or dose not given here; as to ELISA p6362: test concentration or dose not given here
[3] = system: HIV-1 BZ 167; format: cell-based; conditions: for Inhibition of HIV-infection: 50-fold dilution of guinea pig immune sera (bleeds S5), HIV-1 BZ 167, p24 at 5 days post infection
[4] = biological target: CBD1, C13K, CBD1/A and C10M peptides and the CBD1-KLH Construct (Human immunodeficiency virus type 1 group M subtype B, UniProt P04578); conditions: guinea pig, in vivo
[5] = biological target: CBD1, C13K, CBD1/A and C10M peptides and the CBD1-KLH Construct (Human immunodeficiency virus type 1 group M subtype B, UniProt P04578, E630Q/H625N/T626M); conditions: guinea pig, in vivo
[6] = system: CBD1, C13K, CBD1/A and C10M peptides and the CBD1-KLH Construct; conditions: guinea pig, in vivo
[7] = system: IgG antibodies in human HIV-1 positive sera; format: binding; conditions: sera at 1000-fold dilution

Row | Substance | % inhibition of HIV-1 at 200-fold dilution [1] | Neutralizing activity ID50 [1] | ELISA titer against C17K [2] | % Inhibition of HIV-1 infection at 200-fold dilution [1] | Neutralizing activity ID50 Fold-Dilution [1] | ELISA C17K [2] | ELISA K23M [2] | ELISA K24W [2] | ELISA K27M [2] | ELISA K27W [2] | ELISA K27W(G) [2] | ELISA K30W(G) [2] | ELISA against the Immunogen (OD) [2] [OD] | ELISA p6362 [2] | further results
1 | KRWIILGLNKIVRMYKKIWNNMTWMQWDK [K29K] | 62% | 250-fold | 1.80 ± 0.62 | – | – | – | – | – | – | – | – | – | – | – | IgG2/IgG1 ratio [2]: 4.95
2 | KLH-CSLEQIWNNMTWMQWDK [KLH-C17K] | – | – | – | – | – | – | – | – | – | – | – | – | – | – | Inhibition of HIV-infection [3]: No Effect; ELISA C10M (titer) [4]: <200; ELISA CBD1 (titer) [5]: <200; ELISA C13K (titer) [6]: <200; ELISA CBD1/A (titer) [6]: <200; ELISA KLH (titer against the CBD1-KLH construct) [6]: <200
3 | C-S-L-E-Q-I-A-N-N-M-T-A-M-Q-A-D-K (CSLEQIANNMTAMQADK) [CBD1/A] | – | – | – | – | – | – | – | – | – | – | – | – | – | – | Inhibition of HIV-infection [3]: no apparent neutralizing activity; also recorded: No Effect; Inhibition of HIV infection ([3]; 100 fold dilution of guinea pig immune serum (bleeds S5), HIV-1 BZ 162, human CD4+ T lymphocytes): did not inhibit; ELISA C10M (titer) [4]: 16,000; ELISA CBD1 (titer) [5]: 20,000 and 16,000; ELISA C13K (titer) [6]: 2,000 and 1,000; ELISA CBD1/A (titer) [6]: 128,000; ELISA KLH (titer against the CBD1-KLH construct) [6]: <200
4 | KRWIILGLNKIVRMYKKIWNNM [K23M] | – | – | – | 11% | 100-fold | <0.20 | 0.53 | <0.20 | <0.20 | <0.20 | <0.20 | <0.20 | 0.66 | <0.20 | immunized mice that developed peptide specific antibodies [2]: 1 out of the five and ^aOnly 1 out of five mice immunized with the K23M peptide developed anti-K23M specific antibodies.
5 | KRWIILGLNKIVRMYKKIWDNMTWMEW [K27W-2] | – | – | – | <10% | 100-fold | <0.20 | <0.02 | <0.02 | <0.20 | 0.22 ± 0.08 | 2.01 ± 0.73 | <0.20 | 2.01 | <0.20 | –
6 | SLEQIWNNMTWMQWDK [CBD1 peptide 618-633] | – | – | – | – | – | – | – | – | – | – | – | – | – | – | HIV-1 positive sera reacting in ELISA / sera tested ([7]; Brazil, n = 22): 1/22; mean OD 450 nm ± S.D. of reacting sera ([7]; Brazil, n = 22): 0.75 OD; HIV-1 positive sera reacting in ELISA / sera tested ([7]; Chili, n = 24): 1/24; mean OD 450 nm ± S.D. of reacting sera ([7]; Chili, n = 24): 0.30 OD; HIV-1 positive sera reacting in ELISA / sera tested ([7]; France, n = 81): 4/81; mean OD 450 nm ± S.D. of reacting sera ([7]; France, n = 81): 0.33 ± 0.05 OD
7 | KRWIILGLNKIVRMYKKCKSLEQIWNNMTWMQWDK | 51% | 200-fold | 1.72 ± 0.46 | – | – | – | – | – | – | – | – | – | – | – | –
8 | C-S-L-E-Q-I-W-N-N-M (CSLEQIWNNM) [C10M] | – | – | – | No Effect | No Effect | – | – | – | – | – | – | – | <0.10 | – | –
9 | KRWIILGLNKIVRMYGPGPGIWNNMTW [K27W(G)] | – | – | – | 16% | 100-fold | <0.20 | <0.20 | <0.20 | <0.20 | <0.20 | 0.66 ± 0.22 | <0.20 | 0.73 | <0.20 | –
10 | AQYIKANSKFIGITELKKCSLEQIWNNMTWMQWDK (AQYIKANSKFIGITELKKCSLEQIWNNMTWMQWDK) [A35K] | 42% | 150-fold | 0.61 ± 0.35 | – | – | – | – | – | – | – | – | – | – | – | difference in the degree of neutralization of HIV-1 infection versus anti-CBD1 immune sera [1]: less than 2 fold; production of anti-CBD1 peptide antibodies, fold lower compared to the CBD1 peptide alone [2]: at least 3 fold; IgG2/IgG1 ratio [2]: 1.56
11 | AQYIKANSKFIGITELKKIWNNMTWMQWDK (AQYIKANSKFIGITELKKIWNNMTWMQWDK) [A30K] | 45% | 150-fold | 0.83 ± 0.44 | – | – | – | – | – | – | – | – | – | – | – | IgG2/IgG1 ratio [2]: 3.24
12 | KRWIILGLNKIVRMYKKIWNNMTWMQW [K27W] | – | – | – | 65% | 300-fold | 0.24 ± 0.12 | <0.20 | <0.20 | <0.20 | 1.49 ± 0.75 | <0.20 | 2.25 ± 0.20 | 1.64 | <0.20 | –
13 | C-I-W-N-N-M-T-W-M-Q-W-D-K (CIWNNMTWMQWDK) [C13K] | None | None | 0.03 ± 0.02 | – | – | – | – | – | – | – | – | – | – | – | Inhibition of HIV-infection [3]: No Effect; ELISA C10M (titer) [4]: <200; ELISA CBD1 (titer) [5]: <200; ELISA C13K (titer) [6]: 400 and 200; ELISA CBD1/A (titer) [6]: <200; ELISA KLH (titer against the CBD1-KLH construct) [6]: <200
14 | KRWIILGLNKIVRMYKKIWNNMTW [K24W] | – | – | – | 88% | 450-fold | <0.20 | 0.45 ± 0.40 | 1.41 ± 0.55 | 0.87 ± 0.15 | 0.21 ± 0.15 | 1.88 ± 0.66 | <0.20 | 1.55 | <0.20 | –
15 | KRWIILGLNKIVRMYGPGPGIWNNMTWMQW [K30W(G)] | – | – | – | 81% | 450-fold | <0.20 | <0.20 | <0.20 | <0.20 | <0.20 | <0.20 | 1.23 ± 0.55 | 1.45 | <0.20 | –
16 | CKSLEQIWNNMTWMQWDK [C18K] | 65% | 250-fold | 1.75 ± 0.60 | – | – | – | – | – | – | – | – | – | – | – | –
17 | KQIINMWQVVGKAMYAKKCKSLEQIWNNMTWMQWDK (KQIINMWQVVGKAMYAKKCKSLEQIWNNMTWMQWDK) | 45% | 150-fold | 1.07 ± 0.33 | – | – | – | – | – | – | – | – | – | – | – | –
18 | KRWIILGLNKIVRMYKKCSLEQIWNNM [K27M] | – | – | – | 65% | 250-fold | – | – | – | – | – | – | – | 1.38 | – | –
19 | RGDAQYIKANSKFIGITELKKIWNNMTWMQWDK (RGDAQYIKANSKFIGITELKKIWNNMTWMQWDK) [R33K] | 64% | 200-fold | 1.66 ± 0.37 | – | – | – | – | – | – | – | – | – | – | – | IgG2/IgG1 ratio [2]: 4.05
